Reference: patent EP0634173B1, “24-epi-1-alpha-hydroxyvitamin D2 for treating osteoporosis” (WISCONSIN ALUMNI RESEARCH FOUNDATION, priority 1993, dated 1995)
Where two headings read alike, the source gives them in different places. Marks after values point to notes of the source that are not given here.

Experiments:
[1] = test system: human leukemia cells (HL-60 cells); settings: 4-day trial period, cited from earlier work
[2] = test system: human leukemia cells (HL-60 cells); settings: cited from earlier work
[3] = test system: human leukemia cells (HL-60 cells); settings: 4-day trial period, cited from earlier work; remark: listed apart in the source
[4] = test system: human leukemia cells (HL-60 cells); experiment: HL-60 cell differentiation, text summary over both NBT-reduction and phagocytosis assays; format: cell-based; settings: HL-60 cell differentiation activity
Experimental: The assays were conducted as described by Ostrem et al (J. Biol. Chem. 262, 14164-14171, 1987), and by DeLuca et al (U. S. Patent 4,717,721). […] Even at doses as low as 10^-8M, this compound produced approximately 64-67% differentiation in the 4-day trial period in both the NBT-reduction and the phagocytosis assay. […] Thus, 1α-hydroxy-24-epi-vitamin D2 has little or no activity in promoting differentiation of promyelocytes to monocytes.

[5] = test system: rats made osteoporotic by ovariectomy; experiment: Restoration of bone mass (femur ash) in oophorectomized rats; format: in vivo, rat; settings: for restoration of bone mass: result in words, previously tested, compared with the compound of the present study; for Total Femur Ash (mg ± SEM) / Ash (% ± SEM): oophorectomized rats, 325 pmol/day for 20 days by Alzet osmotic minipump; for Ash (% ± SEM): femur
Source text: At 13 weeks, the animals were either sham-operated or oophorectomized. They continued on the same diet for an additional 16 weeks. Ouring the last 20 days, the animals received the indicated dose of either 1α-hydroxyvitamin D2 or 24-epi-1α-hydroxyvitamin D2, in propylene glycol, delivered each day by Alzet osmotic minipump for a period of 20 days. The animals were killed and their femurs were used to determine total bone ash and percent ash. There were 6 animals in each group and the data are expressed as average ± standard error of the mean. Oophorectomy results in a lack of estrogen reminiscent of the menopausal state.

vitamin D-deficient rat [6] = settings: cited from earlier work; for Bone Mobilization Serum Ca: 20 h prior to sacrifice, vitamin D-free, low calcium diet; for activity in mobilizing calcium from bone: result in words, animals on a low calcium diet
vitamin D-deficient rat [7] = settings: cited from earlier work; for Ca Transport S/M Ratio: 20 h prior to sacrifice, vitamin D-free, low calcium diet

| Structure (SMILES) | % Differentiation NBT Reduction ([1]; 1 x 10^-7 M) [%] | % Differentiation NBT Reduction ([1]; 1 x 10^-8 M) [%] | % Differentiation NBT Reduction ([1]; 2 x 10^-8 M) [%] | % Differentiation NBT Reduction ([1]; 5 x 10^-8 M) [%] | differentiation ([2]; 1-2 x 10^-8M) | differentiation ([2]; 10^-7M) | % Differentiation Phagocytosis ([3]; 1 x 10^-7 M) [%] | % Differentiation Phagocytosis ([3]; 1 x 10^-8 M) [%] | % Differentiation Phagocytosis ([3]; 2 x 10^-8 M) [%] | % Differentiation Phagocytosis ([3]; 5 x 10^-8 M) [%] | restoration of bone mass [5] | Bone Mobilization Serum Ca (vitamin D-deficient rat [6]; 325 pmol) | activity in mobilizing calcium from bone (vitamin D-deficient rat [6]) | Total Femur Ash (mg ± SEM) [5] [mg] | Ash (% ± SEM) [5] [%] | Ca Transport S/M Ratio (vitamin D-deficient rat [7]; 325 pmol) | other results |
| --- | --- | --- | --- | --- | --- | --- | --- | --- | --- | --- | --- | --- | --- | --- | --- | --- | --- |
| C=C1/C(=C\C=C2/CCC[C@]3(C)[C@@H]([C@H](C)/C=C/[C@@H](C)C(C)(C)O)CC[C@@H]23)C[C@@H](O)C[C@@H]1O [1α,25-Dihydroxy-24-epi-vitamin D2, 1α,25-dihydroxy-24-epi-vitamin D2] | 80 ± 3 | 39 ± 3 | 48 ± 3 | 64 ± 3 | 40-50% | 80% | 81 ± 3 | 40 ± 3 | 49 ± 2 | 62 ± 3 | – | – | – | – | – | – | differentiation ([2]; 5 x 10^-8M): > 60%; times less active than the 1α,25-dihydroxyvitamin D3 standard [4]: about 5 |
| C=C1/C(=C\C=C2/CCC[C@]3(C)[C@@H]([C@H](C)CCCC(C)(C)O)CC[C@@H]23)C[C@@H](O)C[C@@H]1O [1α,25-Dihydroxy-vitamin D3, 1α,25-dihydroxyvitamin D3] | 87 ± 2 | 64 ± 2 | – | – | – | – | 89 ± 3 | 67 ± 3 | – | – | restored some bone mass | – | – | – | – | – | differentiation ([2]; 10^-8M, 4-day trial period, both NBT-reduction and phagocytosis assay): 64-67% |
| C=C1/C(=C\C=C2/CCC[C@]3(C)[C@@H]([C@H](C)/C=C/[C@@H](C)C(C)C)CC[C@@H]23)C[C@@H](O)C[C@@H]1O [1α-Hydroxy-24-epi-vitamin D2, 24-epi-1α-hydroxyvitamin D2] | 22 ± 2 | 4 ± 2 | 6 ± 2 | 14 ± 2 | does not elicit a significant differentiation response | 16-20% | 16 ± 2 | 4 ± 2 | 6 ± 3 | 9 ± 1 | – | 3.9 ± 0.39^b mg % | no activity | 400 | 60.5 ± 0.5 | 4.3 ± 0.42^a | Bone Mobilization Serum Ca (vitamin D-deficient rat [6]; 650 pmol): 4.1 ± 0.23^b mg %; Total Femur Ash (mg ± SEM) ([5]; listed as 24-epi-1α-OH-D2): 400 ± 16.4^d mg; Ca Transport S/M Ratio (vitamin D-deficient rat [7]; 650 pmol): 4.4 ± 0.70^a; activity in stimulating intestinal calcium transport (vitamin D-deficient rat [7]; result in words, data of Table 1): high activity |
| C=C1/C(=C\C=C2/CCC[C@]3(C)[C@@H]([C@H](C)/C=C/[C@H](C)C(C)C)CC[C@@H]23)C[C@@H](O)C[C@@H]1O [1α-Hydroxy-vitamin D2, 1α-hydroxyvitamin D2] | – | – | – | – | – | – | – | – | – | – | – | 5.3 ± 0.15^a mg % | strongly active | 377 | 58.6 ± 0.55 | 5.4 ± 0.37^a | Total Femur Ash (mg ± SEM) ([5]; listed as 1α-OH-D2): 377 ± 15.2^c mg |
| C=C1/C(=C\C=C2/CCC[C@]3(C)[C@@H]([C@H](C)CCCC(C)C)CC[C@@H]23)C[C@@H](O)C[C@@H]1O [1α-hydroxyvitamin D3] | – | – | – | – | – | – | – | – | – | – | restored some bone mass | – | – | – | – | – | – |
